The target of test [1] is G protein-coupled receptor kinase 6 (Homo sapiens, UniProt P43250).
Test [2] concerns the target Cyclin-dependent kinase 17 (Homo sapiens, UniProt Q00537).
The target in test [3] is PAS domain-containing serine/threonine-protein kinase (Homo sapiens, UniProt Q96RG2).
Another test deals with T1, UMP-CMP kinase (Homo sapiens, UniProt P30085).
T1 sequence (P30085 whole entry): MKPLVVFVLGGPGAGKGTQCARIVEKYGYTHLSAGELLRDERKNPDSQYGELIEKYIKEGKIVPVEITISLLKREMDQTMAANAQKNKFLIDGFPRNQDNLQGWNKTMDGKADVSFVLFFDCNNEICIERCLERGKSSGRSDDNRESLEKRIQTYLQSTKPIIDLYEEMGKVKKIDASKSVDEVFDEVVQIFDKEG

Test [4] concerns the target Dual specificity protein kinase CLK3 (Homo sapiens, UniProt P49761). The format is subcellular, K-562, COLO 205, SK-N-BE(2) and MV-4-11, Cell lysate. The conditions noted are these: read-out: Kd apparent.
Test [5] concerns the target T2, Long-chain-fatty-acid--CoA ligase 5 (Homo sapiens, UniProt Q9ULC5).
T2 sequence (Q9ULC5 whole entry): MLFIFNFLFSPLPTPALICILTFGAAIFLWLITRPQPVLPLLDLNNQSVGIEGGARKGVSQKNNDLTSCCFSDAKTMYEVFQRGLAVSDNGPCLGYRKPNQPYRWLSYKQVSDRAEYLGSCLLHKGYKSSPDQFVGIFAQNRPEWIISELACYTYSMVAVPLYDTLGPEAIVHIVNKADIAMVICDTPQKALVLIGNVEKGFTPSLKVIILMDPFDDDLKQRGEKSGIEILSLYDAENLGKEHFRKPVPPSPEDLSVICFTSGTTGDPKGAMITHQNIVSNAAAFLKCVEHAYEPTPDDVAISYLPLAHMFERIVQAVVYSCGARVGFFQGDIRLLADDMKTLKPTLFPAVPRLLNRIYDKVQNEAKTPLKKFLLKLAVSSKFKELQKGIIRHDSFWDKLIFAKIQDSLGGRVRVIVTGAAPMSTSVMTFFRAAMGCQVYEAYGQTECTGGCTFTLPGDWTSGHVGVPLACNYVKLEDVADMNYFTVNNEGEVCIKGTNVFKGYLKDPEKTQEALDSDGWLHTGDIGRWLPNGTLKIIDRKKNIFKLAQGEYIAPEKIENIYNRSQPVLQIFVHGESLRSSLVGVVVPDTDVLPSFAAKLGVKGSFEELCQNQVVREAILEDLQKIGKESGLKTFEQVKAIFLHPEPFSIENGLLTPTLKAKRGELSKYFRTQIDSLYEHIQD

In test [6] the target is T3, ATP-dependent RNA helicase DHX30 (Homo sapiens, UniProt Q7L2E3).
T3 sequence (Q7L2E3 whole entry): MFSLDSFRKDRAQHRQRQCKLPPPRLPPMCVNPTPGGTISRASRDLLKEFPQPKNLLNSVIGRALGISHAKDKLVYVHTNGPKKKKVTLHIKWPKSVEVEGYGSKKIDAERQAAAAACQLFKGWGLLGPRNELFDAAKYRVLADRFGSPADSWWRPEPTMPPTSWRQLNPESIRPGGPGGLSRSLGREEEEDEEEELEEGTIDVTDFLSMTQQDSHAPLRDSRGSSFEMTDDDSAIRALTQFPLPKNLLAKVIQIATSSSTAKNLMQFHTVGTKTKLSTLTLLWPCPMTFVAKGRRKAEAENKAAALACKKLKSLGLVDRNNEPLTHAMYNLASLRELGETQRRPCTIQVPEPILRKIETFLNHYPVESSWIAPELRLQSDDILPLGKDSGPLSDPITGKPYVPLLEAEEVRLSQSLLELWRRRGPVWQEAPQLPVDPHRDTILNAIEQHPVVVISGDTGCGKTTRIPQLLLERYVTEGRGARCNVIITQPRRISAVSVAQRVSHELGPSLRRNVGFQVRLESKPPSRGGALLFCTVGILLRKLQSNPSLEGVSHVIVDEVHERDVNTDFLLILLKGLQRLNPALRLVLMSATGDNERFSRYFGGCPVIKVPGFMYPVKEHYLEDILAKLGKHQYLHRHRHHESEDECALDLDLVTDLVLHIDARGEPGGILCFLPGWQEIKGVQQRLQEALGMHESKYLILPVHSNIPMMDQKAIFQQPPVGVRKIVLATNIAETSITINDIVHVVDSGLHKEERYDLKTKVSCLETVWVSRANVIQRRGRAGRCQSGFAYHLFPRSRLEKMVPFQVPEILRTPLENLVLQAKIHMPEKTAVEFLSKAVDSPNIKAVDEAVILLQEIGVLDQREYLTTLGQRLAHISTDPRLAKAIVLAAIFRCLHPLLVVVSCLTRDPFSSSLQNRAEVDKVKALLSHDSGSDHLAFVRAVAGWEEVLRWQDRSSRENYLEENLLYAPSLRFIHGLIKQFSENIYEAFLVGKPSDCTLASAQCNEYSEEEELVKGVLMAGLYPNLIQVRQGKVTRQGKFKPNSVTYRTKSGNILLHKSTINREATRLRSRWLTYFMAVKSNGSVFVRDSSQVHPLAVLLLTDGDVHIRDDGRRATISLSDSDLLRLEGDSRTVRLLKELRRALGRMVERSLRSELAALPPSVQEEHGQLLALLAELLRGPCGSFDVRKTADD

Test [7] has as its target Dual specificity testis-specific protein kinase 2 (Homo sapiens, UniProt Q96S53).
For test [8], the target named is Proto-oncogene tyrosine-protein kinase receptor Ret (Homo sapiens, UniProt P07949).
Sequence of Proto-oncogene tyrosine-protein kinase receptor Ret (P07949 whole entry): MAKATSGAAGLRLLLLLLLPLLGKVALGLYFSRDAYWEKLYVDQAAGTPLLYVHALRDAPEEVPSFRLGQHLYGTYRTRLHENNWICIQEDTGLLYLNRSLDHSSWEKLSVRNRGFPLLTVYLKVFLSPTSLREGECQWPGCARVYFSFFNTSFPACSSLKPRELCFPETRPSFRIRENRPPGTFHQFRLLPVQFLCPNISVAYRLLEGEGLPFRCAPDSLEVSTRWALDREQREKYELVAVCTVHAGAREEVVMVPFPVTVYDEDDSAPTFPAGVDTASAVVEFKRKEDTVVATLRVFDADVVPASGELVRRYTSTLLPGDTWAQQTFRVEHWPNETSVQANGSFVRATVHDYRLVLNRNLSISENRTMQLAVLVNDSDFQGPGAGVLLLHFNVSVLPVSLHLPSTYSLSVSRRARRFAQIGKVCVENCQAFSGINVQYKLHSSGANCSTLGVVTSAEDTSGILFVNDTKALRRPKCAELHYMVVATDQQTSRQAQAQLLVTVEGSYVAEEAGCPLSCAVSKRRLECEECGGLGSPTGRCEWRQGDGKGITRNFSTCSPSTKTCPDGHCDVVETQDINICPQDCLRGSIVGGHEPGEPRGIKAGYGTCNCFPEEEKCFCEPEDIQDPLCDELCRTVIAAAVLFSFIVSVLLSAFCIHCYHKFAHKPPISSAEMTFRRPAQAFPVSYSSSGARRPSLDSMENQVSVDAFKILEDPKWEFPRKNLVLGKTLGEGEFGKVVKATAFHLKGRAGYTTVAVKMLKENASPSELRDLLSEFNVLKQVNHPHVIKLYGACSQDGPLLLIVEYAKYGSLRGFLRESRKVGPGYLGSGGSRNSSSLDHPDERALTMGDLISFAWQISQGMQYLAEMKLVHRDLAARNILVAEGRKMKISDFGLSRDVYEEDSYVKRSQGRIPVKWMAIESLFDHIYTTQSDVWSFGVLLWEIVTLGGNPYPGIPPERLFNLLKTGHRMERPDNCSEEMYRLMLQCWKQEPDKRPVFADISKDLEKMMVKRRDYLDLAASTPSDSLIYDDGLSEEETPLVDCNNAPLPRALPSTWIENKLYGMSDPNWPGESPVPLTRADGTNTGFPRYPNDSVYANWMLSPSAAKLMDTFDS
The target in test [9] is Serine/threonine-protein kinase pim-2 (Homo sapiens, UniProt Q9P1W9).
Sequence of Serine/threonine-protein kinase pim-2 (Q9P1W9 whole entry): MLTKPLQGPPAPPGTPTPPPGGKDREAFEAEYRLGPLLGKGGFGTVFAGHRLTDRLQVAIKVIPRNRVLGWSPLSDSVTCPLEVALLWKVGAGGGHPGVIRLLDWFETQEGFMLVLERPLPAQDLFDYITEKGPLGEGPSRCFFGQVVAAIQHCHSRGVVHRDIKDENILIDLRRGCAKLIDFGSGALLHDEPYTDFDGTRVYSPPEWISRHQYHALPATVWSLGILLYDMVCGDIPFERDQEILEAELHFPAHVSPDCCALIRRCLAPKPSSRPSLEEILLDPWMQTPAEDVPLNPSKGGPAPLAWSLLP

The source made the active and inactive calls. A value given as a limit tells only on which side of the number the result lay.
Further: in the data inactive means no Kd found up to 30 µM.

Sequence of PAS domain-containing serine/threonine-protein kinase (Q96RG2 whole entry, the tested form may be a part): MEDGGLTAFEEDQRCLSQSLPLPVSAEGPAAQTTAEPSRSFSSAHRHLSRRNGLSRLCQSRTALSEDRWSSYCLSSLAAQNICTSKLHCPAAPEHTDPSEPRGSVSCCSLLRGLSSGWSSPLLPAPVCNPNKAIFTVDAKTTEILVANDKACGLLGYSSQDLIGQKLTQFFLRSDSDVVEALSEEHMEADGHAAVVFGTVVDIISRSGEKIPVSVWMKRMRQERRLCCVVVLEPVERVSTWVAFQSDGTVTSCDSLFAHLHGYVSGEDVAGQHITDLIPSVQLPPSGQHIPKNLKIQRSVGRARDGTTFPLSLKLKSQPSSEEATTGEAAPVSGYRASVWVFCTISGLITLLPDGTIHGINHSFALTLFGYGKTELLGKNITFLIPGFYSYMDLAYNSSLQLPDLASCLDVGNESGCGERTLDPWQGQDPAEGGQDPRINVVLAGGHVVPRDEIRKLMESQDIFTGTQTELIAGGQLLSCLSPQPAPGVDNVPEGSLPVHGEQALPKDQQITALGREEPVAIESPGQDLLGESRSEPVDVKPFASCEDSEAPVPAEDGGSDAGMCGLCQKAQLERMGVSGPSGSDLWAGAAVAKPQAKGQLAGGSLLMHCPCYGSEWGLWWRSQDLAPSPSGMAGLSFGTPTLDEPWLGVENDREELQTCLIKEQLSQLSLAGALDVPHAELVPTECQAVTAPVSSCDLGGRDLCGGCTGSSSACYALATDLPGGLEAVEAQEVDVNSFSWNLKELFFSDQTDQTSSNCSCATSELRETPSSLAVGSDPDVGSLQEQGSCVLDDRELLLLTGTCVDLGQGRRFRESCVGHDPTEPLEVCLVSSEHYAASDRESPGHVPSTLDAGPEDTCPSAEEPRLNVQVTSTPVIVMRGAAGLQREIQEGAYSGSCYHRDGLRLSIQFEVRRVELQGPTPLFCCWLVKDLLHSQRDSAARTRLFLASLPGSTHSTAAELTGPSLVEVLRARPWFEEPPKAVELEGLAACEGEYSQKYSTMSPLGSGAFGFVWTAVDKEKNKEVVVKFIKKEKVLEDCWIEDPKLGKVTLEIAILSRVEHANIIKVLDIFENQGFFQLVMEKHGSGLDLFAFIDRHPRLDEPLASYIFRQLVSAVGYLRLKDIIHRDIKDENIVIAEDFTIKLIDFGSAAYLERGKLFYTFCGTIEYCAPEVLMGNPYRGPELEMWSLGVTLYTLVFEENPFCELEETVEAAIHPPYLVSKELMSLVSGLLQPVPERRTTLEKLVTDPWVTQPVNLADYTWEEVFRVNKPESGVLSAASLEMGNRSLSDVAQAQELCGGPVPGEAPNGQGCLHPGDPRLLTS
Sequence of Cyclin-dependent kinase 17 (Q00537 whole entry, the tested form may be a part): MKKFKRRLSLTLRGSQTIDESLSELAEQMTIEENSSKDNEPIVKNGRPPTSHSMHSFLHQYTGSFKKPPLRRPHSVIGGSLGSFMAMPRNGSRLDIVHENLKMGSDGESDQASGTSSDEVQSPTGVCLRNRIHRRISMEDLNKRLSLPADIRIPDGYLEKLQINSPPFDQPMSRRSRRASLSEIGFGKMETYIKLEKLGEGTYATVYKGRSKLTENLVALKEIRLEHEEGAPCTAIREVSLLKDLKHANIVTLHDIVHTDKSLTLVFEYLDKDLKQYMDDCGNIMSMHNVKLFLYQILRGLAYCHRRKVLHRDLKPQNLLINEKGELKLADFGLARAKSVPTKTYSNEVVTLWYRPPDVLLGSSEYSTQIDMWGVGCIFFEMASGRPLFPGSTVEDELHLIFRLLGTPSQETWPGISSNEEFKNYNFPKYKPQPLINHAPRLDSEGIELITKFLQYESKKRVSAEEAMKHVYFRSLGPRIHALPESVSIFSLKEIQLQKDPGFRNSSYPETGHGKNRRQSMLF
Sequence of Dual specificity testis-specific protein kinase 2 (Q96S53 whole entry): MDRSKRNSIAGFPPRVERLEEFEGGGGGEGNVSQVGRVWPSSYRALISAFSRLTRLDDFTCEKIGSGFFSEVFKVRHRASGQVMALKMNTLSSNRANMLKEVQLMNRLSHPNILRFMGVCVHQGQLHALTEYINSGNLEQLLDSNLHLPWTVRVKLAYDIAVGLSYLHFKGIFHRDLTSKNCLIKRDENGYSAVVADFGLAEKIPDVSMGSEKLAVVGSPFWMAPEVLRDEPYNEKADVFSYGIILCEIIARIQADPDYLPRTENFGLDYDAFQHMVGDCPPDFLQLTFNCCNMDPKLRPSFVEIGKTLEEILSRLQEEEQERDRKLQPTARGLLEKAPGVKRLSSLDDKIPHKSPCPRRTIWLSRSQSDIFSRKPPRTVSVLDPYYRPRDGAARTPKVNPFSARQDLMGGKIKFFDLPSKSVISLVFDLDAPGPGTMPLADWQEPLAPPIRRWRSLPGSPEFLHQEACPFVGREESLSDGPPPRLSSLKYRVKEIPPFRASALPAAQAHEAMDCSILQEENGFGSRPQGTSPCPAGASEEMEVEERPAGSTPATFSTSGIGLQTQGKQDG
Sequence of G protein-coupled receptor kinase 6 (P43250 whole entry): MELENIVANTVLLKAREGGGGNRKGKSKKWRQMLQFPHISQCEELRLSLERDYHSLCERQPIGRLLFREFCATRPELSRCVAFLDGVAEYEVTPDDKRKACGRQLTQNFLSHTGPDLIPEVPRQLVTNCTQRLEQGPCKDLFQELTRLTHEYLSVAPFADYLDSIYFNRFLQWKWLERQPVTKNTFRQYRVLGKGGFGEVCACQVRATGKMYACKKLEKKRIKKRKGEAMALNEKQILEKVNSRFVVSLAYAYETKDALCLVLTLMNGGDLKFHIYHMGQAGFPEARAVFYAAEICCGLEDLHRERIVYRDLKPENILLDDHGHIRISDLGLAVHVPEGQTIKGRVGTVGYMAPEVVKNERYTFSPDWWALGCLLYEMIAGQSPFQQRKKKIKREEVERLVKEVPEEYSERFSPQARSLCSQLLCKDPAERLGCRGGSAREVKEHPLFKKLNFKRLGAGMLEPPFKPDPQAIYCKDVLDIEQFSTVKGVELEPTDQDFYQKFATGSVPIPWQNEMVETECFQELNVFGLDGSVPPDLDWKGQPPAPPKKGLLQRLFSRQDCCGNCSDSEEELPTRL
Sequence of Dual specificity protein kinase CLK3 (P49761 whole entry): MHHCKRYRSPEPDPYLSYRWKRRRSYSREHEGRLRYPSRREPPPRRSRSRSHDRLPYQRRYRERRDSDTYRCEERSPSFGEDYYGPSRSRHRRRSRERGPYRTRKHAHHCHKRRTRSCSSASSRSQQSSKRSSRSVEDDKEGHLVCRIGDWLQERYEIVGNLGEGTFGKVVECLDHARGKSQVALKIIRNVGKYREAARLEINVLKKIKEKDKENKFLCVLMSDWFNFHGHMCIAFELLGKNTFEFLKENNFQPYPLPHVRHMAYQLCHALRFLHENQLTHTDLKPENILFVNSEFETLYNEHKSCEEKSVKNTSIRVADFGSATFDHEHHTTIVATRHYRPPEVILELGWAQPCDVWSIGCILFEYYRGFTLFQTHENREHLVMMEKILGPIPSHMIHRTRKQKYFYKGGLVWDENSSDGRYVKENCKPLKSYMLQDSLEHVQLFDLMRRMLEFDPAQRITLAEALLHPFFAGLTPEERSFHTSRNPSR

With `COc1cc2nccc(Oc3ccc(NC(=O)NC4CC4)c(Cl)c3)c2cc1C(N)=O` [LENVATINIB], the Kd (in test [1]; in test [2]; in test [3]; on UMP-CMP kinase; in test [4]; in [5]) was > 30 µM (inactive) throughout.

On to `O=C(Nc1cccc(Cl)c1)Nc1ncc(CCNc2ncnc3ccsc23)s1` [SNS-314], for which the Kd (in test [1]; in test [6]; on UMP-CMP kinase; in test [4]; in test [5]) was > 30 µM (inactive) throughout.

With `O=C1NC(=O)/C(=C/c2ccc3nccc(-c4ccncc4)c3c2)S1` [GSK-1059615], the Kd in test [1], in test [2], in [6], in [4], in test [7] and in [8] was > 30 µM (inactive) in each case.

`CCS(=O)(=O)N1CC(CC#N)(n2cc(-c3ncnc4[nH]ccc34)cn2)C1` [BARICITINIB]: the Kd (in test [1]; in test [2]; in test [6]; in test [3]; on UMP-CMP kinase; in test [4]) was > 30 µM (inactive) throughout. In addition, the Kd in [5] was > 30 µM (inactive); in test [8], 0.973 µM (active).

Consider `COc1ccc(-c2ccc3c(N4CCOC[C@@H]4C)nc(N4CCOC[C@@H]4C)nc3n2)cc1CO` [AZD-8055], for which the Kd (in test [1]; in [2]; in test [6]; in test [3]; on UMP-CMP kinase; in test [9]) was > 30 µM (inactive) each time. The Kd in [7] and in [8] was > 30 µM (inactive) each time.

As for `C=CC(=O)N1CCC(Oc2cc3c(Nc4ccc(Cl)c(Cl)c4F)ncnc3cc2OC)CC1` [POZIOTINIB], the Kd in test [1] is > 30 µM (inactive); in test [2], > 30 µM (inactive); in [6], > 30 µM (inactive); in test [4], > 30 µM (inactive); in [7] it was > 30 µM (inactive); in test [8], 1.19 µM (active).

With `Cc1ccc(-n2nc(C(C)(C)C)cc2NC(=O)NCc2cc(F)ccc2Oc2ccc3c(cnn3CCO)c2)cc1` [PEXMETINIB], the Kd in test [1] was > 30 µM (inactive); in test [2], 0.402 µM (active); in test [6], > 30 µM (inactive); in test [3], > 30 µM (inactive); on UMP-CMP kinase it was > 30 µM (inactive); in test [5], > 30 µM (inactive). Moreover, the Kd is > 30 µM (inactive) in test [9] and 1.2 µM (active) in test [8].

With `CCc1cnn2c(NCc3ccc[n+]([O-])c3)cc(N3CCCC[C@H]3CCO)nc12` [DINACICLIB], the Kd (in test [1]; in [3]; at UMP-CMP kinase; in test [5]; in [9]; in test [7]) was > 30 µM (inactive) in each case.

`COc1cc2nccc(Oc3ccc(NC(=O)Nc4cc(C)on4)c(Cl)c3)c2cc1OC` [TIVOZANIB]: the Kd (in [1]; in [2]; in test [3]; at UMP-CMP kinase; in test [5]; in test [9]) was > 30 µM (inactive) throughout. Moreover, the Kd in test [7] is > 30 µM (inactive).

As to `CCCS(=O)(=O)Nc1ccc(F)c(C(=O)c2c[nH]c3ncc(-c4ccc(Cl)cc4)cc23)c1F` [VEMURAFENIB], the Kd (in test [1]; in test [2]; on UMP-CMP kinase; in test [5]; in test [9]; in test [7]) was > 30 µM (inactive) in each case. The Kd in test [8] is > 30 µM (inactive).

`Cc1cc(-c2cc(O)ccc2Cl)cc2nnc(Nc3ccc(OCCN4CCCC4)cc3)nc12`: the Kd (in test [2]; in test [6]; in [3]; at UMP-CMP kinase; in test [5]; in test [9]) was > 30 µM (inactive) throughout. Also, the figures for the Kd in [7] and in test [8] were > 30 µM (inactive) and 0.001 µM (active), respectively.

As to `COC(=O)[C@@]1(O)C[C@H]2O[C@]1(C)n1c3ccccc3c3c4c(c5c6ccccc6n2c5c31)C(=O)NC4` [K-252A], the Kd in test [2], in test [6], in test [5], in [9] and in [7] was > 30 µM (inactive) each time.

For the molecule `Cn1cc(-c2ccc(F)c(C(F)(F)F)c2)nc1C1CCN(c2ncnc3[nH]ncc23)CC1` [LY-2584702], the Kd (at UMP-CMP kinase; in [5]; in test [9]; in test [7]; in [8]) was > 30 µM (inactive) each time.

Turning to `CN(C)C(=O)c1cc2cnc(Nc3ccc(N4CCNCC4)cn3)nc2n1C1CCCC1` [RIBOCICLIB], the Kd in test [1], in test [6], in [3], in [9], in [7] and in test [8] was > 30 µM (inactive) in each case.

`O=C(Nc1ccc(-c2ccnc(Nc3ccc(N4CCOCC4)cc3)n2)cc1)C1CCCN1` (configuration not stated) [XL-019]: the Kd in test [6] was > 30 µM (inactive); in test [3], > 30 µM (inactive); in test [4], > 30 µM (inactive); in test [5], > 30 µM (inactive); in [8], 1.33 µM (active).

For `CCN1CCN(Cc2ccc(-c3cc4c(N[C@H](C)c5ccccc5)ncnc4[nH]3)cc2)CC1` [AEE-788], the Kd in test [1], in test [2], in test [6], in [3], in [5] and in test [9] was > 30 µM (inactive) throughout.

For the origin of these results see ChEMBL document CHEMBL3991601, “The target landscape of clinical kinase drugs” (Science, 2017).
